Reference: ChEMBL document CHEMBL4507301 (2021)

Experiments:
[1] = system: Tyrosine-protein kinase ABL1 (Homo sapiens), P00519 [F317I]; conditions: Compound concentration 1000.0 nM
[2] = system: Tyrosine-protein kinase ABL1 (Homo sapiens), P00519 [T315I]; conditions: Compound concentration 1000.0 nM
[3] = target: Protein-tyrosine kinase 6 (Homo sapiens) (UniProt Q13882); conditions: Compound concentration 1000.0 nM
[4] = target: Calcium/calmodulin-dependent protein kinase kinase 1 (Homo sapiens) (UniProt Q8N5S9); conditions: Compound concentration 1000.0 nM
[5] = target: Cyclin-dependent kinase 13 (Homo sapiens) (UniProt Q14004); conditions: Compound concentration 1000.0 nM
[6] = target: Cyclin-dependent kinase 4 (Homo sapiens) (UniProt P11802); conditions: Compound concentration 1000.0 nM
[7] = target: Serine/threonine-protein kinase Chk1 (Homo sapiens) (UniProt O14757); conditions: Compound concentration 1000.0 nM
[8] = target: Dual specificity protein kinase CLK4 (Homo sapiens) (UniProt Q9HAZ1); conditions: Compound concentration 1000.0 nM
[9] = target: Macrophage colony-stimulating factor 1 receptor (Homo sapiens) (UniProt P07333); conditions: Compound concentration 1000.0 nM
[10] = target: Casein kinase I isoform alpha-like (Homo sapiens) (UniProt Q8N752); conditions: Compound concentration 1000.0 nM
[11] = target: Serine/threonine-protein kinase DCLK2 (Homo sapiens) (UniProt Q8N568); conditions: Compound concentration 1000.0 nM
[12] = system: Epidermal growth factor receptor (Homo sapiens), P00533 [UNDEFINED MUTATION]; conditions: Compound concentration 1000.0 nM
[13] = system: Epidermal growth factor receptor (Homo sapiens), P00533 [UNDEFINED MUTATION]; conditions: Compound concentration 1000.0 nM; remark: listed apart in the source
[14] = target: Ephrin type-A receptor 4 (Homo sapiens) (UniProt P54764); conditions: Compound concentration 1000.0 nM
[15] = target: Mitogen-activated protein kinase 15 (Homo sapiens) (UniProt Q8TD08); conditions: Compound concentration 1000.0 nM
[16] = target: Tyrosine-protein kinase Fgr (Homo sapiens) (UniProt P09769); conditions: Compound concentration 1000.0 nM
[17] = target: Serine/threonine-protein kinase haspin (Homo sapiens) (UniProt Q8TF76); conditions: Compound concentration 1000.0 nM
[18] = target: Tyrosine-protein kinase ITK/TSK (Homo sapiens) (UniProt Q08881); conditions: Compound concentration 1000.0 nM
[19] = target: Mitogen-activated protein kinase 8 (Homo sapiens) (UniProt P45983); conditions: Compound concentration 1000.0 nM
[20] = system: Mast/stem cell growth factor receptor Kit (Homo sapiens), P10721 [A829P]; conditions: Compound concentration 1000.0 nM
[21] = system: Mast/stem cell growth factor receptor Kit (Homo sapiens), P10721 [L576P]; conditions: Compound concentration 1000.0 nM
[22] = target: LIM domain kinase 2 (Homo sapiens) (UniProt P53671); conditions: Compound concentration 1000.0 nM
[23] = target: Leucine-rich repeat serine/threonine-protein kinase 2 (Homo sapiens) (UniProt Q5S007); conditions: Compound concentration 1000.0 nM
[24] = target: Mitogen-activated protein kinase kinase kinase 4 (Homo sapiens) (UniProt Q9Y6R4); conditions: Compound concentration 1000.0 nM
[25] = target: MAP/microtubule affinity-regulating kinase 3 (Homo sapiens) (UniProt P27448); conditions: Compound concentration 1000.0 nM
[26] = target: Maternal embryonic leucine zipper kinase (Homo sapiens) (UniProt Q14680); conditions: Compound concentration 1000.0 nM
[27] = target: Mitogen-activated protein kinase kinase kinase 9 (Homo sapiens) (UniProt P80192); conditions: Compound concentration 1000.0 nM
[28] = target: Serine/threonine-protein kinase 24 (Homo sapiens) (UniProt Q9Y6E0); conditions: Compound concentration 1000.0 nM
[29] = system: Phosphatidylinositol 4,5-bisphosphate 3-kinase catalytic subunit alpha isoform (Homo sapiens), P42336 [M1043I]; conditions: Compound concentration 1000.0 nM
[30] = target: Phosphatidylinositol 5-phosphate 4-kinase type-2 beta (Homo sapiens) (UniProt P78356); conditions: Compound concentration 1000.0 nM
[31] = target: Protein kinase C epsilon type (Homo sapiens) (UniProt Q02156); conditions: Compound concentration 1000.0 nM
[32] = target: Serine/threonine-protein kinase RIO2 (Homo sapiens) (UniProt Q9BVS4); conditions: Compound concentration 1000.0 nM
[33] = target: Ribosomal protein S6 kinase alpha-3 (Homo sapiens) (UniProt P51812); conditions: Compound concentration 1000.0 nM
[34] = target: Ribosomal protein S6 kinase alpha-6 (Homo sapiens) (UniProt Q9UK32); conditions: Compound concentration 1000.0 nM
[35] = target: Serine/threonine-protein kinase tousled-like 1 (Homo sapiens) (UniProt Q9UKI8); conditions: Compound concentration 1000.0 nM
[36] = target: Wee1-like protein kinase 2 (Homo sapiens) (UniProt P0C1S8); conditions: Compound concentration 1000.0 nM
[37] = target: 5-hydroxytryptamine receptor 1A (Homo sapiens) (UniProt P08908); conditions: Compound concentration 10.0 uM
[38] = target: 5-hydroxytryptamine receptor 6 (Homo sapiens) (UniProt P50406); conditions: Compound concentration 10.0 uM
[39] = target: Mu-type opioid receptor (Homo sapiens) (UniProt P35372); conditions: Compound concentration 10.0 uM

Chain of Epidermal growth factor receptor (Homo sapiens), P00533 [UNDEFINED MUTATION] (P00533 whole entry, looked up, change not shown): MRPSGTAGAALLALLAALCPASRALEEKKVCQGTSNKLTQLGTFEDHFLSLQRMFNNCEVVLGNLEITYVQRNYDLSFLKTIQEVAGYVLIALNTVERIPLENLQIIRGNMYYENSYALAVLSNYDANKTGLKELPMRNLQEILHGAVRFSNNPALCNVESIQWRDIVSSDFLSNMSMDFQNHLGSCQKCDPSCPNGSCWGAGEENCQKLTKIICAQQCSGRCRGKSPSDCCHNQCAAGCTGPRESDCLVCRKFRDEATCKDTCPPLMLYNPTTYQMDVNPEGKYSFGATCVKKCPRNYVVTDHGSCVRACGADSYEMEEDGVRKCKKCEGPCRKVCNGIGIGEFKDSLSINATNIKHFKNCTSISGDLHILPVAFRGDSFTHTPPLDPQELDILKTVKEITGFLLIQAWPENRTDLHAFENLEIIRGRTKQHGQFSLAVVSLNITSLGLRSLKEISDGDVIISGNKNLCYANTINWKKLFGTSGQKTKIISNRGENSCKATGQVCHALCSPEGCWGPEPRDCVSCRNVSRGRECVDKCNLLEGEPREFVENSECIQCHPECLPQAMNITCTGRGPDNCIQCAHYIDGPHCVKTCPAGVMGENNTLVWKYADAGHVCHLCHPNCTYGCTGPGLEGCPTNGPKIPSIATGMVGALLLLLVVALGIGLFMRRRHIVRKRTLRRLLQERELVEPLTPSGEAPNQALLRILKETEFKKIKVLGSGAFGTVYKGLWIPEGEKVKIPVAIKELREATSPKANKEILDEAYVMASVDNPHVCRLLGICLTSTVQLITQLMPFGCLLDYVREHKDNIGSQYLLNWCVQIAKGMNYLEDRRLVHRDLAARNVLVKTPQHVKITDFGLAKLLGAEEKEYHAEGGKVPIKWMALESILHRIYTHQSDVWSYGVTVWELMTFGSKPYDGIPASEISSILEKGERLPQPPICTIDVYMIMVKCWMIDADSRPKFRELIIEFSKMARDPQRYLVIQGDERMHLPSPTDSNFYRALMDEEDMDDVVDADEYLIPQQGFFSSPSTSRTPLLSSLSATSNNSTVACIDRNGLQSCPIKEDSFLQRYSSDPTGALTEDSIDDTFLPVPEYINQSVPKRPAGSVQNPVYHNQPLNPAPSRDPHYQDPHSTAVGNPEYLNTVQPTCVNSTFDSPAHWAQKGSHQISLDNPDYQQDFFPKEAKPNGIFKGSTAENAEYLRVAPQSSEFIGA
Chain of Serine/threonine-protein kinase 24 (Homo sapiens) (Q9Y6E0 whole entry, looked up, canonical isoform): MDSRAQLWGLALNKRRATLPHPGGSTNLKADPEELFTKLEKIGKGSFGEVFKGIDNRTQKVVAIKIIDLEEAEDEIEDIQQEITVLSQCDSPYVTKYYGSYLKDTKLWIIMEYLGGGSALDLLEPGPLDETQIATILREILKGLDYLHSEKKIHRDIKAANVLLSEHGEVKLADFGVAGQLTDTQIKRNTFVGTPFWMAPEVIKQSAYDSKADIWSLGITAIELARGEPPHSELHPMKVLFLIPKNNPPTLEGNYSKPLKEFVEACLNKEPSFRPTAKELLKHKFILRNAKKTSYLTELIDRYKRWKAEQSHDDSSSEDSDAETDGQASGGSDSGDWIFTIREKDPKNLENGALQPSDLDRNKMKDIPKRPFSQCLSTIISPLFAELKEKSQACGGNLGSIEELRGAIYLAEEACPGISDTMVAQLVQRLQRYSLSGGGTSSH
Chain of MAP/microtubule affinity-regulating kinase 3 (Homo sapiens) (P27448 whole entry, looked up): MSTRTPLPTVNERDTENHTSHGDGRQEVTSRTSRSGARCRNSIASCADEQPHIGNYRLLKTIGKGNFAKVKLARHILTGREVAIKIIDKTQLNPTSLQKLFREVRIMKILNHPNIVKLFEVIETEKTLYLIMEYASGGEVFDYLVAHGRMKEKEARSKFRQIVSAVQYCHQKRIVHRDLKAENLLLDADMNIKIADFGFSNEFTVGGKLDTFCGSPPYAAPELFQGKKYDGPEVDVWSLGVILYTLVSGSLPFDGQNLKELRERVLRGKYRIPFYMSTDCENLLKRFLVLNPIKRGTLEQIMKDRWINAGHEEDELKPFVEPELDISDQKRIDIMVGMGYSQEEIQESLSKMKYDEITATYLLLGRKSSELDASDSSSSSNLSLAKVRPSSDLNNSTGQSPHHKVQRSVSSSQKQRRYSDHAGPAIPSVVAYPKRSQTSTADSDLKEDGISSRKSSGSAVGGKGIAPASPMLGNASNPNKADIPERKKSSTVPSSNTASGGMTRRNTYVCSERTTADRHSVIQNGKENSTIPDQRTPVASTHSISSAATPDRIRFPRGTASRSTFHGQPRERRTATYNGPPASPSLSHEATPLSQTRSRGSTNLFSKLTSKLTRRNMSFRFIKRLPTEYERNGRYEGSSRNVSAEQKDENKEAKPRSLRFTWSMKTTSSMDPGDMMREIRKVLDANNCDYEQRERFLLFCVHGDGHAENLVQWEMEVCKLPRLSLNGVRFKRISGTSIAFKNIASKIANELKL
Chain of Phosphatidylinositol 5-phosphate 4-kinase type-2 beta (Homo sapiens) (P78356 whole entry): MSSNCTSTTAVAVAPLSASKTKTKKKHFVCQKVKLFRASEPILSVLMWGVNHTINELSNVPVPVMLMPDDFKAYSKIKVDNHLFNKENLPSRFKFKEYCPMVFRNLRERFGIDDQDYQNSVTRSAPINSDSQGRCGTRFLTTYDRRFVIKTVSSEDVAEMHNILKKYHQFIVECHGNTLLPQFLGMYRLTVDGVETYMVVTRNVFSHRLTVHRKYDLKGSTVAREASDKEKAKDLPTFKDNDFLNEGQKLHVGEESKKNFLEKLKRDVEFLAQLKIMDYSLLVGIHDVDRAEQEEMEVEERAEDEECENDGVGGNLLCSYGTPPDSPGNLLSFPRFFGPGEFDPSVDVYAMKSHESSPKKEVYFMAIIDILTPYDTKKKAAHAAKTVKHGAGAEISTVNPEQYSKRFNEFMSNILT
Chain of 5-hydroxytryptamine receptor 6 (Homo sapiens) (P50406 whole entry): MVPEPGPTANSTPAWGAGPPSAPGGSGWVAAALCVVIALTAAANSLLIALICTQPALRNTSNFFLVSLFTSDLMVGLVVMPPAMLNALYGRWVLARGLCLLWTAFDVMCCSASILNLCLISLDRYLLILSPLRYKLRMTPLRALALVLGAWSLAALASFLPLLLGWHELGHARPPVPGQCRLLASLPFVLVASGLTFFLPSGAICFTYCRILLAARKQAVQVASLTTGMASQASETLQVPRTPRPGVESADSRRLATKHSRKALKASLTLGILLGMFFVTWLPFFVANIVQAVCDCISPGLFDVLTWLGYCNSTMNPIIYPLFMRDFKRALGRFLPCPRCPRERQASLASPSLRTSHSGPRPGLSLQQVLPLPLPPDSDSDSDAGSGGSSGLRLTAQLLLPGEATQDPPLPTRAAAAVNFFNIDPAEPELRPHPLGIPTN
Chain of Casein kinase I isoform alpha-like (Homo sapiens) (Q8N752 whole entry, canonical isoform): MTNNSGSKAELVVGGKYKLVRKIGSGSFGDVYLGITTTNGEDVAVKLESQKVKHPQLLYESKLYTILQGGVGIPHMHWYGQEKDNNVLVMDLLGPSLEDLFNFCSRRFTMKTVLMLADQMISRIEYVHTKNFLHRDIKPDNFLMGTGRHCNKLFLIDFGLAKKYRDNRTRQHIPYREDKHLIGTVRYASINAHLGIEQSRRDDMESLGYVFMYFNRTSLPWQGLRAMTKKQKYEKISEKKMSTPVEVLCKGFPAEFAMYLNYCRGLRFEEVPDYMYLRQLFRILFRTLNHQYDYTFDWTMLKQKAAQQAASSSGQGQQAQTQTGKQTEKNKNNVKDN
Chain of Maternal embryonic leucine zipper kinase (Homo sapiens) (Q14680 whole entry, looked up): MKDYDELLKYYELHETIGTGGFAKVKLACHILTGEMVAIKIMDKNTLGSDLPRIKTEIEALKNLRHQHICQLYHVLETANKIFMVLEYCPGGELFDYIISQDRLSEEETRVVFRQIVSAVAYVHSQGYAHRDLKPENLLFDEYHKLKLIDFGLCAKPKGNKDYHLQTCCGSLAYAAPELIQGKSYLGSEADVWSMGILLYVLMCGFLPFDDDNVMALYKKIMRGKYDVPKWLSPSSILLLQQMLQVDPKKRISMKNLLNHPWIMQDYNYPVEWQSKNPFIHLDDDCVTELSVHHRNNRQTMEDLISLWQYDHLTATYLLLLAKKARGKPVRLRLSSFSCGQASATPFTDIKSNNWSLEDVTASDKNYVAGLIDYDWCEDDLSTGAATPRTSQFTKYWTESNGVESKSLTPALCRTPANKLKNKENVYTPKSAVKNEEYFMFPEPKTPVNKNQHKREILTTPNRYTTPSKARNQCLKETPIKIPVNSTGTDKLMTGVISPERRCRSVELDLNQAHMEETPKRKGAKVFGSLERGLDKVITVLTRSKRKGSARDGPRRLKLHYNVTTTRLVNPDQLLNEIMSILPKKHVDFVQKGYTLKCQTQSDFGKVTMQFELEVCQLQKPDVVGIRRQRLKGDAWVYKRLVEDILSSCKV
Chain of Mitogen-activated protein kinase 8 (Homo sapiens) (P45983 whole entry): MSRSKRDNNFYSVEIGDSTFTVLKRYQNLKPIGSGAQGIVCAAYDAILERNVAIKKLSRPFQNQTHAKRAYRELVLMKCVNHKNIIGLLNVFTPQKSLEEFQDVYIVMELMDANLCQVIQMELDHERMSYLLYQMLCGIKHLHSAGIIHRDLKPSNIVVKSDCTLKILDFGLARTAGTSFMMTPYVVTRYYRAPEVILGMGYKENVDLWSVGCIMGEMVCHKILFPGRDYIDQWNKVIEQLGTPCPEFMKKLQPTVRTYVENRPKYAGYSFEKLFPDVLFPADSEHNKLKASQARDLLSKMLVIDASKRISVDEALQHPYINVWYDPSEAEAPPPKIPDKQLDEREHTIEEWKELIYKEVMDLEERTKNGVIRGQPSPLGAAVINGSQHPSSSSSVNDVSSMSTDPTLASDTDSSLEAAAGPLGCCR
Chain of Cyclin-dependent kinase 4 (Homo sapiens) (P11802 whole entry): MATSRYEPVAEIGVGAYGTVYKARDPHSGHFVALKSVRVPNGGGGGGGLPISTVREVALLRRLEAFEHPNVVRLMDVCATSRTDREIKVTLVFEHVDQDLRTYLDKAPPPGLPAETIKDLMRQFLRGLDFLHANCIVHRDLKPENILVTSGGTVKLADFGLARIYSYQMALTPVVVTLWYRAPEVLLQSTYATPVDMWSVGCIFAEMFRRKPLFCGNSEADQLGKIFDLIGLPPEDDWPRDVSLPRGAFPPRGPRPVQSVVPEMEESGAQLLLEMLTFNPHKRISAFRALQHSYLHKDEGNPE

Compound | residual activity [1] | residual activity [2] | residual activity [3] | residual activity [4] | residual activity [5] | residual activity [6] | residual activity [7] | residual activity [8] | residual activity [9] | residual activity [10] | residual activity [11] | residual activity [12] | residual activity [13] | residual activity [14] | residual activity [15] | residual activity [16] | residual activity [17] | residual activity [18] | residual activity [19] | residual activity [20] | further results
C[C@H](c1cccc(C#N)c1)n1cc(Cl)cc(C(N)=O)c1=N [(R)-9s] | 85% | 96% | 95% | 87% | 100% | 97% | 100% | 100% | 100% | 92% | 88% | 78% | 100% | 65% | 100% | 80% | 91% | 90% | 72% | 95% | residual activity [21]: 93%; residual activity [22]: 100%; residual activity [23]: 100%; residual activity [24]: 47%; residual activity [25]: 100%; residual activity [26]: 74%; residual activity [27]: 95%; residual activity [28]: 89%; residual activity [29]: 100%; residual activity [30]: 52%; residual activity [31]: 87%; residual activity [32]: 74%; residual activity [33]: 80%; residual activity [34]: 91%; residual activity [35]: 94%; residual activity [36]: 97%; inhibition [37]: -4.95%; inhibition [38]: 6.03%; inhibition [39]: -5.45%
C[C@@H](c1cccc(C#N)c1)n1cc(Cl)cc(C(N)=O)c1=N [(S)-9s] | 76% | 0% | 85% | 100% | 100% | 96% | 100% | 100% | 96% | 82% | 90% | 88% | 100% | 90% | 100% | 87% | 100% | 82% | 75% | 100% | residual activity [21]: 86%; residual activity [22]: 100%; residual activity [23]: 100%; residual activity [24]: 71%; residual activity [25]: 98%; residual activity [26]: 78%; residual activity [27]: 100%; residual activity [28]: 100%; residual activity [29]: 100%; residual activity [30]: 73%; residual activity [31]: 89%; residual activity [32]: 83%; residual activity [33]: 86%; residual activity [34]: 82%; residual activity [35]: 100%; residual activity [36]: 77%; inhibition [37]: 1.02%; inhibition [38]: 7.75%; inhibition [39]: -6.83%
